What was measured:
SpeG = biological target: T1, SpeG (Escherichia coli, UniProt P0A951); assay: continuous spectrophotometric acetyltransferase assay; format: biochemical
T1 sequence (P0A951 1-186): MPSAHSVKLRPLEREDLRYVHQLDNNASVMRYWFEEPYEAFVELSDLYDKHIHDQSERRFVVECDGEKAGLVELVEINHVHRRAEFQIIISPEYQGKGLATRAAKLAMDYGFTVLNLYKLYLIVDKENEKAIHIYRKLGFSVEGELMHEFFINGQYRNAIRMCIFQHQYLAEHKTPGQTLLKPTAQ

[1] = biological target: T2, spermidine/spermine acetyltransferase 1 (SAT1) (Homo sapiens, UniProt P21673); assay: continuous spectrophotometric acetyltransferase assay, […] spermidine as substrate; format: biochemical
PA1472 = PA1472 (Pseudomonas aeruginosa, UniProt Q9I3P0)
[2] = biological target: T2, spermidine/spermine acetyltransferase 1 (SAT1)
[3] = substrate: NCCCCNCCCN; assay: continuous spectrophotometric enzyme kinetics; format: biochemical, Escherichia coli; conditions: acetyl-CoA

T2 sequence (P21673 whole entry): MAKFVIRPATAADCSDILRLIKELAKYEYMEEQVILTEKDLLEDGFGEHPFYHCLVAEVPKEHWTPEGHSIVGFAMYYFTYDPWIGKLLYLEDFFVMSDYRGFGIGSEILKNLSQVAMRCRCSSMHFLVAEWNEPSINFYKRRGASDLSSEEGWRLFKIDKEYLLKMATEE
Chain of PA1472 (Q9I3P0 1-184): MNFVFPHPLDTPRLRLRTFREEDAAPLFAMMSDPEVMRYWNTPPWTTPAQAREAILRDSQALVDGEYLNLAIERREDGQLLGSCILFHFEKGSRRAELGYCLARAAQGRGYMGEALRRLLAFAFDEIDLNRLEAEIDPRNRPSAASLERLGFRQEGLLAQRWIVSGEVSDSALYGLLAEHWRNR

Molecule: N=C(N)c1ccc(/N=N/Nc2ccc(C(=N)N)cc2)cc1 [diminazene]
- IC50 (SpeG): 26.2 ± 3.7 µM
- IC50 [1]: 21 ± 0.6 µM

Molecule: NCCCCN [putrescine]
- Km (PA1472): 30.7 ± 9.9 mM
- Km [2]: 8.7 ± 2.43 mM

B1: SpeG (Escherichia coli K-12) (protein)
chain: MPSAHSVKLRPLEREDLRYVHQLDNNASVMRYWFEEPYEAFVELSDLYDKHIHDQSERRFVVECDGEKAGLVELVEINHVHRRAEFQIIISPEYQGKGLATRAAKLAMDYGFTVLNLYKLYLIVDKENEKAIHIYRKLGFSVEGELMHEFFINGQYRNAIRMCIFQHQYLAEHKTPGQTLLKPTAQ
- K0.5 [3]: 590.1 ± 30.8 µM
